Experimental data reported in patent US5438052A, “Cephalosporin derivatives” (Hoffmann-La Roche Inc., priority 1991, dated 1995).
Converted amounts (≈) assume the structure as drawn. Structures can show the parent of a compound that is named as a salt. Where two headings read alike, the source gives them in different places.

Key:
S. marcescens 69438 = experiment: Minimum inhibitory concentration in vitro, agar dilution method; assay type: cell-based; details: Serratia marcescens
Source text: (§1) 1. Minimum Inhibitory Concentration in vitro
(§2) The activities ascertained, minimum inhibitory concentration (MIC) in μg/ml, are compiled in Table 1 hereinafter: […]

K. oxytoca 1082 = experiment: as above; assay type: cell-based; details: Klebsiella oxytoca
Source text: as §1, §2

S. aureus 6538 = experiment: as above; assay type: cell-based; details: Staphylococcus aureus
Source text: as §1, §2

P. vulgaris 1028 = experiment: as above; assay type: cell-based; details: Proteus vulgaris
Source text: as §1, §2

P. aeruginosa BA = experiment: as above; assay type: cell-based; details: Pseudomonas aeruginosa
Source text: as §1, §2

E. cloacae P99 = experiment: as above; assay type: cell-based; details: Enterobacter cloacae
Source text: as §1, §2

P. mirabilis 2117 = experiment: as above; assay type: cell-based; details: Proteus mirabilis
Source text: as §1, §2

S. pyogenes 15 = experiment: as above; assay type: cell-based; details: Streptococcus pyogenes
Source text: as §1, §2

P. aeruginosa 799/WT = experiment: as above; assay type: cell-based; details: Pseudomonas aeruginosa
Source text: as §1, §2

P. aeruginosa 799/61 = experiment: as above; assay type: cell-based; details: Pseudomonas aeruginosa
Source text: as §1, §2

P. aeruginosa 27853 = experiment: as above; assay type: cell-based; details: Pseudomonas aeruginosa
Source text: as §1, §2

P. aeruginosa MK1184 = experiment: as above; assay type: cell-based; details: Pseudomonas aeruginosa
Source text: as §1, §2

E. cloacae 908R = experiment: as above; assay type: cell-based; details: Enterobacter cloacae
Source text: as §1, §2

E. cloacae 908SSi = experiment: as above; assay type: cell-based; details: Enterobacter cloacae
Source text: as §1, §2

C. freundii 902 = experiment: as above; assay type: cell-based; details: Citrobacter freundii
Source text: as §1, §2

K. pneumoniae 418 = experiment: as above; assay type: cell-based; details: Klebsiella pneumoniae
Source text: as §1, §2

E. coli 25922 [1] = experiment: as above; assay type: cell-based; details: Escherichia coli
Source text: as §1, §2

S. aureus Schoch = experiment: Experimental systemic septicaemia in the mouse; assay type: in vivo; details: Staphylococcus aureus, sc, 96 h
Procedure, shortened: (§3)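 Albino mice (16-20 g) infected i.p. with overnight culture at about 5-100× the 48 h LD50; groups of 5. Compounds given s.c. in 2% Tween 80 at 1 and 3 h post-infection (P. aeruginosa also at 5 h). ED50 (mg/kg s.c.) by Probit from 4-day survival.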

[2] = test system: Pseudomonas aeruginosa BA; experiment: Experimental systemic septicaemia in the mouse; assay type: in vivo; details: sc, 96 h
Procedure, shortened: as §3

E. coli 25922 [3] = experiment: Experimental systemic septicaemia in the mouse; assay type: in vivo; details: 96 h
Procedure, shortened: as §3

S. pneumoniae BA = experiment: Minimum inhibitory concentration in vitro, agar dilution method; assay type: cell-based; details: Streptococcus pneumoniae; S. pneumoniae BA, agar dilution; read-out: MIC
Source text: as §1, §2

E. aerogenes CF153 = experiment: as above; assay type: cell-based; details: Klebsiella aerogenes; E. aerogenes CF153, agar dilution; read-out: MIC
Source text: as §1, §2

[4] = S. marcescens 69438, agar dilution, read-out: MIC
[5] = K. oxytoca 1082, agar dilution, read-out: MIC
[6] = S. aureus 6538, agar dilution, read-out: MIC
[7] = P. vulgaris 1028, agar dilution, read-out: MIC
[8] = P. aeruginosa BA, agar dilution, read-out: MIC
[9] = P. mirabilis 2117, agar dilution, read-out: MIC
[10] = S. pyogenes 15, agar dilution, read-out: MIC
[11] = P. aeruginosa 799/WT, agar dilution, read-out: MIC
[12] = P. aeruginosa 799/61, agar dilution, read-out: MIC
[13] = P. aeruginosa 27853, agar dilution, read-out: MIC
[14] = P. aeruginosa MK1184, agar dilution, read-out: MIC
[15] = E. cloacae 908R, agar dilution, read-out: MIC
[16] = E. cloacae 908SSi, agar dilution, read-out: MIC
[17] = C. freundii 902, agar dilution, read-out: MIC
[18] = K. pneumoniae 418, agar dilution, read-out: MIC
[19] = E. coli 25922, agar dilution, read-out: MIC
[20] = S. aureus Schoch, albino mice, s.c. 1 and 3 hours after infection, survival after 4 days, read-out: ED50
[21] = P. aeruginosa BA, albino mice, s.c. 1, 3 and 5 hours after infection, survival after 4 days, read-out: ED50
[22] = Escherichia coli, sc, E. coli 25922, albino mice, s.c. 1 and 3 hours after infection, survival after 4 days, read-out: ED50

| Structure (SMILES) | MIC (S. marcescens 69438; [4]) | MIC (K. oxytoca 1082; [5]) | MIC (S. aureus 6538; [6]) | MIC (P. vulgaris 1028; [7]) | MIC (P. aeruginosa BA; [8]) | MIC (E. cloacae P99) | MIC (P. mirabilis 2117; [9]) | MIC (S. pyogenes 15; [10]) | MIC (P. aeruginosa 799/WT; [11]) | MIC (P. aeruginosa 799/61; [12]) | MIC (P. aeruginosa 27853; [13]) | MIC (P. aeruginosa MK1184; [14]) | MIC (E. cloacae 908R; [15]) | MIC (E. cloacae 908SSi; [16]) | MIC (C. freundii 902; [17]) | MIC (K. pneumoniae 418; [18]) | MIC (E. coli 25922 [1]; [19]) | ED50 (S. aureus Schoch; [20]) | ED50 [2, 21] | ED50 (E. coli 25922 [3]; [22]) | other results |
| --- | --- | --- | --- | --- | --- | --- | --- | --- | --- | --- | --- | --- | --- | --- | --- | --- | --- | --- | --- | --- | --- |
| Cc1cc(SCC2=C(C(=O)O)N3C(=O)[C@@H](NC(=O)/C(=N\OCc4ccc(O)c(O)c4F)c4csc(N)n4)[C@H]3SC2)n2nc(CNS(=O)(=O)c3ccc(O)c(O)c3)nc2n1 [Example 5, 7-[(Z)-2-(2-amino-4-thiazolyl)-2-[[(2-fluoro-3,4-dihydroxybenzyl)oxy]imino]acetamido]-3-[[[2-[(3,4-dihydroxybenzenesulphonamido)methyl]-5-methyl-s-triazolo[1,5-a]pyrimidin-7-yl]thio]methyl]-8-oxo-5-thia-1-azabicyclo[4.2.0]oct-2-ene-2-carboxylic acid sodium salt (1:1)] | < 0.1 µg/mL | 0.25 µg/mL | 4 µg/mL | 0.5 µg/mL | 0.12 µg/mL | 4 µg/mL | 0.25 µg/mL | 0.5 µg/mL | < 0.1 µg/mL | < 0.1 µg/mL | 0.12 µg/mL | < 0.1 µg/mL | 0.25 µg/mL | 1 µg/mL | < 0.1 µg/mL | < 0.1 µg/mL | < 0.1 µg/mL | 3.1 mg/kg | 0.034 mg/kg | < 0.1 mg/kg | – |
| Cc1cc(SCC2=C(C(=O)O)N3C(=O)[C@@H](NC(=O)/C(=N\OC(C)(C)C(=O)NNC(=O)c4ccc(O)c(O)c4)c4csc(N)n4)[C@H]3SC2)n2nc(CS(=O)(=O)c3ccc(O)c(O)c3)nc2n1 [Example 44] | 0.25 µg/mL (≈ 0.258 µM) | < 0.1 µg/mL | 32 µg/mL (≈ 33 µM) | 0.25 µg/mL (≈ 0.258 µM) | < 0.1 µg/mL | – | 0.25 µg/mL (≈ 0.258 µM) | 8 µg/mL (≈ 8.25 µM) | 0.12 µg/mL (≈ 0.124 µM) | < 0.1 µg/mL | 0.5 µg/mL (≈ 0.515 µM) | 0.12 µg/mL (≈ 0.124 µM) | 1 µg/mL (≈ 1.03 µM) | 8 µg/mL (≈ 8.25 µM) | 0.25 µg/mL (≈ 0.258 µM) | < 0.1 µg/mL | < 0.1 µg/mL | > 12 mg/kg | < 0.01 mg/kg | < 0.05 mg/kg | MIC (S. pneumoniae BA): 1 µg/mL (≈ 1.03 µM) |
| Nc1nc(/C(=N/OCc2nc(=O)c(O)c[nH]2)C(=O)N[C@@H]2C(=O)N3C(C(=O)O)=C(CSc4nc(-c5ccccc5)ncc4-c4ccc(O)c(O)c4)CS[C@H]23)cs1 [Example 16, (6R,7R)-7-[(Z)-2-(2-amino-4-thiazolyl)-2-[[(1,4-dihydro-5-hydroxy-4-oxo-2-pyrimidinyl)methoxy]imino]acetamido]-3-[[[5-(3,4-dihydroxyphenyl)-2-phenyl-4-pyrimidinyl]thio]methyl]-8-oxo-5-thia-1-azabicyclo[4.2.0]oct-2-ene-2-carboxylic acid] | 1 µg/mL (≈ 1.25 µM) | 0.25 µg/mL (≈ 0.312 µM) | 32 µg/mL (≈ 39.9 µM) | 0.25 µg/mL (≈ 0.312 µM) | 4 µg/mL (≈ 4.99 µM) | 8 µg/mL (≈ 9.98 µM) | 0.25 µg/mL (≈ 0.312 µM) | 0.25 µg/mL (≈ 0.312 µM) | 0.5 µg/mL (≈ 0.624 µM) | < 0.1 µg/mL | 1 µg/mL (≈ 1.25 µM) | > 32 µg/mL | 0.25 µg/mL (≈ 0.312 µM) | 8 µg/mL (≈ 9.98 µM) | 0.12 µg/mL (≈ 0.15 µM) | < 0.1 µg/mL | < 0.1 µg/mL | – | > 2 mg/kg | < 0.5 mg/kg | MIC (E. aerogenes CF153): 0.12 µg/mL (≈ 0.15 µM) |
| Cc1cc(SCC2=C(C(=O)O)N3C(=O)[C@@H](NC(=O)/C(=N\OCc4ccc(O)c(O)c4)c4csc(N)n4)[C@H]3SC2)n2nc(CNS(=O)(=O)c3ccc(O)c(O)c3)nc2n1 [Example 4, (6R,7R)-7-[(Z)-2-(2-amino-4-thiazolyl)-2-[[(3,4-dihydroxybenzyl)oxy]imino]acetamido]-3-[[[2-[(3,4-dihydroxybenzenesulphonamido)methyl]-5-methyl-s-triazolo[1,5-a]pyrimidin-7-yl]thio]methyl]-8-oxo-5-thia-1-azabicyclo[4.2.0]oct-2-ene-2carboxylic acid] | 0.12 µg/mL (≈ 0.138 µM) | 16 µg/mL (≈ 18.4 µM) | 4 µg/mL (≈ 4.59 µM) | 1 µg/mL (≈ 1.15 µM) | < 0.1 µg/mL | 32 µg/mL (≈ 36.7 µM) | 0.25 µg/mL (≈ 0.287 µM) | 0.25 µg/mL (≈ 0.287 µM) | 0.25 µg/mL (≈ 0.287 µM) | 0.12 µg/mL (≈ 0.138 µM) | 0.5 µg/mL (≈ 0.574 µM) | 0.25 µg/mL (≈ 0.287 µM) | 1 µg/mL (≈ 1.15 µM) | 4 µg/mL (≈ 4.59 µM) | < 0.1 µg/mL | < 0.1 µg/mL | < 0.1 µg/mL | 3.1 mg/kg | 0.12 mg/kg | < 0.1 mg/kg | – |
| Cc1cc(SCC2=C(C(=O)[O-])N3C(=O)[C@@H](NC(=O)/C(=N\OCc4ccc(O)c(O)c4)c4csc(N)n4)[C@H]3SC2)n2nc(COC(=O)c3ccc(O)c(O)c3)nc2n1.[Na+] [Example 8, (6R,7R)-7-[(Z)-2-(2-amino-4-thiazolyl)-2-[[(3,4-dihydroxybenzyl)oxy]imino]acetamido]-3-[[[2-[[(3,4-dihydroxybenzoyl)oxy]methyl]-5-methyl-s-triazolo[1,5-a]pyrimidin-7-yl]thio]methyl]-8-oxo-5-thia-1-azabicyclo[4.2.0]oct-2-ene-2-carboxylic acid sodium salt (1:1)] | – | – | – | – | – | 8 µg/mL | – | – | – | – | – | – | – | – | – | – | – | – | – | – | MIC (S. marcescens 69438; 69438): 0.12 µg/mL; MIC (K. oxytoca 1082; 1082): < 0.1 µg/mL; MIC (S. aureus 6538; 6538): 4 µg/mL; MIC (P. vulgaris 1028; 1028): < 0.1 µg/mL; MIC (P. aeruginosa BA): < 0.1 µg/mL; MIC (P. mirabilis 2117; 2117): < 0.1 µg/mL; MIC (S. pyogenes 15; 15): 1 µg/mL; MIC (P. aeruginosa 799/WT; 799/WT): < 0.1 µg/mL; MIC (P. aeruginosa 799/61; 799/61): < 0.1 µg/mL; MIC (P. aeruginosa 27853; 27853): 0.12 µg/mL; MIC (P. aeruginosa MK1184; MK1184): < 0.1 µg/mL; MIC (E. cloacae 908R; 908R): 0.25 µg/mL; MIC (E. cloacae 908SSi; 908SSI): 2 µg/mL; MIC (C. freundii 902; 902): < 0.1 µg/mL; MIC (K. pneumoniae 418; 418): < 0.1 µg/mL; MIC (E. coli 25922 [1]; 25922): < 0.1 µg/mL; ED50 (S. aureus Schoch): 2 mg/kg; ED50 [2]: 0.45 mg/kg; ED50 (E. coli 25922 [3]; Escherichia coli, 25922, sc): < 0.1 mg/kg |
